Each structure is given as a SMILES string.

Broadly, the IC50 is the concentration at which inhibition is half-maximal.

The test system of the assay is IL-1β production in PMA-differentiated THP-1 cells. In words: IL-1β production in PMA-differentiated THP-1 cells stimulated with gramicidin (hTHP-1 assay, 2% fetal bovine serum; Procedures 1-3). Conditions: hTHP-1 assay containing 2% fetal bovine serum, Table B2, class symbols; read-out: IC50. Format: cell-based, human. The essentials: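 IL-1β released into supernatants was read by HTRF after 2 h gramicidin (5 μM) challenge. Before challenge, compounds (3-fold dilutions, top 100 μM, 0.37% DMSO) were given 1 h on THP-1 cells differentiated with PMA (20 ng/ml, 16-18 h) and held in 2% FBS medium.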
Take `NS(=O)(=NC(=O)Nc1c2c(cc3c1CC3)CCC2)c1ccc(CN2CCC2)cc1F` (single isomer, unassigned) [Example 524, (R) or (S)-4-(azetidin-1-ylmethyl)-2-fluoro-N′-((2,4,5,6-tetrahydro-1H-cyclobuta[f]inden-3 - yl)carbamoyl) benzenesulfonimidamide]: the IC50 lay within 200 to 1000 nM.
Turning to `NS(=O)(=NC(=O)Nc1c2c(cc3c1CC3)CCC2)c1ccc(CN2CCC2)cc1F` (single isomer, unassigned) [Example 525, (S) or (R)-4-(azetidin-1-ylmethyl)-2-fluoro-N′-((2,4,5,6-tetrahydro-1H-cyclobuta[f]inden-3 - yl)carbamoyl) benzenesulfonimidamide], the IC50 fell in the range of 5000 to 30000 nM.
On to `CC(C)c1cc2c(cc1NC(=O)N=S(N)(=O)c1cnc(C(C)(C)O)s1)CCC2` (single isomer, unassigned) [Example 526, (R) or (S)-2-(2-hydroxypropan-2-yl)-N′-((6-isopropyl-2,3-dihydro-1H-inden-5-yl)carbamoyl)thiazole-5-sulfonimidamide], for which the IC50 was 200 to 1000 nM.
With `CC(C)c1cc2c(cc1NC(=O)N=S(N)(=O)c1cnc(C(C)(C)O)s1)CCC2` (single isomer, unassigned) [Example 527, (S) or (R)-2-(2-hydroxypropan-2-yl)-N′-((6-isopropyl-2,3-dihydro-1H-inden-5-yl)carbamoyl) thiazole-5-sulfonimidamide], the IC50 was 1000 to 5000 nM.
With `CNCC1(c2ccc(S(N)(=O)=NC(=O)Nc3c4c(cc5c3CCC5)CCC4)c(F)c2)CC1` (single isomer, unassigned) [Example 528, (R) or (S)-2-fluoro-N′-((1,2,3,5,6,7-hexahydro-s-indacen-4-yl)carbamoyl)-4-(1-((methylamino)methyl)cyclopropyl) benzenesulfonimidamide] the figure was 200 to 1000 nM; with `CNCC1(c2ccc(S(N)(=O)=NC(=O)Nc3c4c(cc5c3CCC5)CCC4)c(F)c2)CC1` (single isomer, unassigned) [Example 529, (S) or (R)-2-fluoro-N′-((1,2,3,5,6,7-hexahydro-s-indacen-4-yl)carbamoyl)-4-(1-((methylamino)methyl)cyclopropyl) benzenesulfonimidamide], 5000 to 30000 nM; with `CC(C)(O)c1csc([S@](N)(=O)=NC(=O)Nc2c3c(cc4c2C(=O)CC4)CCC3)c1` (single isomer, unassigned) [Example 530, (R) or (S)-4-(2-hydroxypropan-2-yl)-N′-((3-oxo-1,2,3,5,6,7-hexahydro-s-indacen-4-yl)carbamoyl) (thiophene-2-sulfonimidamide], 40 to 200 nM.
Take `CC(C)(O)c1csc([S@@](N)(=O)=NC(=O)Nc2c3c(cc4c2C(=O)CC4)CCC3)c1` (single isomer, unassigned) [Example 531, (S) or (R)-4-(2-hydroxypropan-2-yl)-N′-((3-oxo-1,2,3,5,6,7-hexahydro-s-indacen-4-yl)carbamoyl) (thiophene-2 - sulfoniinidamide]: the IC50 is 1000 to 5000 nM.
To `COCc1nc(C(C)(C)O)sc1S(N)(=O)=NC(=O)Nc1c2c(c(C#N)c3c1CCC3)CCC2` (single isomer, unassigned) [Example 532, (S) or (R)-N′-((8-cyano-1,2,3,5,6,7-hexahydro-s-indacen-4-yl)carbamoyl)-2-(2-hydroxypropan-2-yl)-4-(methoxymethyl) thiazole-5-suifoiiimidamide] belongs 1000 to 5000 nM.
Regarding `COCc1nc(C(C)(C)O)sc1S(N)(=O)=NC(=O)Nc1c2c(c(C#N)c3c1CCC3)CCC2` (single isomer, unassigned) [Example 533, (R) or (S)-N′-((8-cyano-1,2,3,5,6,7-hexahydro-s-indacen-4-yl)carbamoyl)-2-(2-hydroxypropan-2-yl)-4-(methoxymethyl) thiazole-5-sulfonimidamide], the IC50 was 200 to 1000 nM.
Turning to `CO[C@H]1COc2c(S(N)(=O)=NC(=O)Nc3c4c(cc5c3CC5)CCC4)cnn2C1` (single isomer, unassigned) [Example 534, (R,6R) or (S,6R)-6-methoxy-N′-((2,4,5,6-tetrahydro-1H-cyclobuta[f]inden-3-yl)carbamoyl)-6,7-dihydro-5H-pyrazolo [5,1-b][1,3]oxazine-3-sulfonimidamide], the IC50 is 8 to 40 nM.
To `CO[C@H]1COc2c(S(N)(=O)=NC(=O)Nc3c4c(cc5c3CC5)CCC4)cnn2C1` (single isomer, unassigned) [Example 535, (S,6R) or (R,6R)-6-methoxy-N′-((2,4,5,6-tetrahydro-1H-cyclobuta[f]inden-3-yl)caibamoyl)-6,7-dihydro-5H-pyrazolo [5,1-b][1,3]oxazine-3-sulfonimidamide] belongs 1000 to 5000 nM; to `CNCc1ccc(S(N)(=O)=NC(=O)Nc2c3c(cc4c2CC4)CCC3)cc1` (single isomer, unassigned) [Example 536, (S) or (R)-4-((methylamino)methyl)-N′-((2,4,5,6-tetrahydro-1H-cyclobuta[f]inden-3-yl)carbamoyl) benzenesulfonimidamide], 5000 to 30000 nM; to `CNCc1ccc(S(N)(=O)=NC(=O)Nc2c3c(cc4c2CC4)CCC3)cc1` (single isomer, unassigned) [Example 537, (R) or (S)-4-((methylamino)methyl)-N′-((2,4,5,6-tetrahydro-1H-cyclobuta[f]inden-3-yl)carbamoyl) benzenesulfonimidamide], 1000 to 5000 nM.
`CC(C)(O)c1cc(F)c(S(N)(=O)=NC(=O)Nc2c3c(cc4c2C(=O)CC4)CCC3)s1` (single isomer, unassigned) [Example 538, (S) or (R)-3-fluoro-5-(2-hydroxypropan-2-yl)-N′-((3-oxo-1,2,3,5,6,7-hexahydro-s-indacen-4-yl)carbamoyl) thiophene-2-sulfonimidamide]: the IC50 was in the range of 5000 to 30000 nM.
In the case of `CC(C)(O)c1cc(F)c(S(N)(=O)=NC(=O)Nc2c3c(cc4c2C(=O)CC4)CCC3)s1` (single isomer, unassigned) [Example 539, (R) or (S)-3-fluoro-5-(2-hydroxypropan-2-yl)-N′-((3-oxo-1,2,3,5,6,7-hexahydro-s-indacen-4-yl)carbamoyl) thiophene-2-sulfonimidamide], the IC50 lay in the range of 40 to 200 nM.
Regarding `CC(C)(O)c1csc(S(N)(=O)=NC(=O)Nc2c3c(c(C#N)c4c2CCC4)CCC3)n1` (single isomer, unassigned) [Example 540, (S) or (R)-N′-((8-cyano-1,2,3,5,6,7-hexahydro-s-indacen-4-yl)carbamoyl)-4-(2-hydroxypropan-2-yl)thiazole-2-sulfonimidamide], the IC50 was 1000 to 5000 nM.
As for `CC(C)(O)c1csc(S(N)(=O)=NC(=O)Nc2c3c(c(C#N)c4c2CCC4)CCC3)n1` (single isomer, unassigned) [Example 541, (R) or (S)-N′-((8-cyano-1,2,3,5,6,7-hexahydro-s-indacen-4-yl)carbamoyl)-4-(2-hydroxypropan-2-yl)thiazole-2-sulfonimidamide], the IC50 was in the range of 40 to 200 nM.
As to `CC(C)(O)c1nc(CO)c(S(N)(=O)=NC(=O)Nc2c3c(cc4c2CCC4)CCC3)s1` (single isomer, unassigned) [Example 542, (S) or (R)-N′-((1,2,3,5,6,7-hexahydro-s-indacen-4-yl)carbamoyl)-4-(hydroxymethyl)-2-(2-hydroxypropan-2-yl)thiazole-5-sulfonimidamide], the half-inhibitory concentration (IC50) fell in the range of 1000 to 5000 nM.
To `CC(C)(O)c1nc(CO)c(S(N)(=O)=NC(=O)Nc2c3c(cc4c2CCC4)CCC3)s1` (single isomer, unassigned) [Example 543, (R) or (S)-N′-((1,2,3,5,6,7-hexahydro-s-indacen-4-yl)carbamoyl)-4-(hydroxymethyl)-2-(2-hydroxypropan-2-yl)thiazole-5-sulfonimidamide] belongs 8 to 40 nM.
`CC(C)(O)c1ccc(S(N)(=O)=NC(=O)Nc2c3c(c(C#N)c4c2CCC4)CCC3)cn1` (single isomer, unassigned) [Example 544, (S) or (R)-N′-((8-cyano-1,2,3,5,6,7-hexahydro-s-indacen-4-yl)carbamoyl)-6-(2-hydroxypropan-2-yl)pyridine-3-sulfonimidamide]: the IC50 fell in the range of 5000 to 30000 nM.
For the compound `CC(C)(O)c1ccc(S(N)(=O)=NC(=O)Nc2c3c(c(C#N)c4c2CCC4)CCC3)cn1` (single isomer, unassigned) [Example 545, (R) or (S)-N′-((8-cyano-1,2,3,5,6,7-hexahydro-s-indacen-4-yl)carbamoyl)-6-(2-hydroxypropan-2-yl)pyridine-3-sulfonimidamide], the IC50 is 40 to 200 nM.
To `NS(=O)(=NC(=O)Nc1c2c(cc3c1CC3)CCC2)c1cnn2c1OCCC2` (single isomer, unassigned) [Example 546, (R) or (S)-N′-((2,4,5,6-tetrahydro-1H-cyclobuta[f]inden-3-yl)carbamoyl)-6,7-dihydio-5H-pyrazolo[5,1-b][1,3]oxazine-3-suIfonimidamide] belongs 200 to 1000 nM; to `NS(=O)(=NC(=O)Nc1c2c(cc3c1CC3)CCC2)c1cnn2c1OCCC2` (single isomer, unassigned) [Example 547, (S) or (R)-N′-((2,4,5,6-tetrahydro-1H-cyclobuta[f]inden-3-yl)carbamoyl)-6,7-dihydio-5H-pyrazolo[5,1-b][1,3]oxazine-3-sulfonimidamide], 1000 to 5000 nM.
On to `CC(C)n1nc(S(N)(=O)=NC(=O)Nc2c3c(c(C#N)c4c2CCC4)CCC3)cc1CO` (single isomer, unassigned) [Example 548, (R) or (S)-N′-((8-cyano-1,2,3,5,6,7-hexahydro-s-indacen-4-yl)carbamoyl)-5-(hydroxymethyl)-1-isopropyl-1H-pyrazole-3-sulfonimidamide], for which the IC50 lay within 40 to 200 nM.
As for `CC(C)n1nc(S(N)(=O)=NC(=O)Nc2c3c(c(C#N)c4c2CCC4)CCC3)cc1CO` (single isomer, unassigned) [Example 549, (S) or (R)-N′-((8-cyano-1,2,3,5,6,7-hexahydro-s-indacen-4-yl)carbamoyl)-5-(hydroxymethyl)-1-isopropyl-1H-pyrazole-3-sulfonimidamide], the IC50 lay within 5000 to 30000 nM.

These data come from patent US20230051589A1, “COMPOUNDS AND COMPOSITIONS FOR TREATING CONDITIONS ASSOCIATED WITH NLRP ACTIVITY” (Novartis AG, priority 2018, published 2023).
